For three compounds, % of control and % of inhibition results are on record in ChEMBL document CHEMBL5465560, “Selectivity Literature for EUbOPEN Chemogenomic Library” (2024).

SMILES strings stand for the structures. Changes are numbered by the printed parent chain.

For assay [1], the target named is Dual specificity protein kinase CLK2 (Homo sapiens, UniProt P49760). Briefly: Selectivity interaction (KinomeScan (DiscoverX)) EUB0001619a CLK2. The note with it: at 1 µM.
Assay [2] concerns the target T1, Serine/threonine-protein kinase TAO3 (Homo sapiens) (UniProt Q9H2K8).
T1 sequence (whole entry): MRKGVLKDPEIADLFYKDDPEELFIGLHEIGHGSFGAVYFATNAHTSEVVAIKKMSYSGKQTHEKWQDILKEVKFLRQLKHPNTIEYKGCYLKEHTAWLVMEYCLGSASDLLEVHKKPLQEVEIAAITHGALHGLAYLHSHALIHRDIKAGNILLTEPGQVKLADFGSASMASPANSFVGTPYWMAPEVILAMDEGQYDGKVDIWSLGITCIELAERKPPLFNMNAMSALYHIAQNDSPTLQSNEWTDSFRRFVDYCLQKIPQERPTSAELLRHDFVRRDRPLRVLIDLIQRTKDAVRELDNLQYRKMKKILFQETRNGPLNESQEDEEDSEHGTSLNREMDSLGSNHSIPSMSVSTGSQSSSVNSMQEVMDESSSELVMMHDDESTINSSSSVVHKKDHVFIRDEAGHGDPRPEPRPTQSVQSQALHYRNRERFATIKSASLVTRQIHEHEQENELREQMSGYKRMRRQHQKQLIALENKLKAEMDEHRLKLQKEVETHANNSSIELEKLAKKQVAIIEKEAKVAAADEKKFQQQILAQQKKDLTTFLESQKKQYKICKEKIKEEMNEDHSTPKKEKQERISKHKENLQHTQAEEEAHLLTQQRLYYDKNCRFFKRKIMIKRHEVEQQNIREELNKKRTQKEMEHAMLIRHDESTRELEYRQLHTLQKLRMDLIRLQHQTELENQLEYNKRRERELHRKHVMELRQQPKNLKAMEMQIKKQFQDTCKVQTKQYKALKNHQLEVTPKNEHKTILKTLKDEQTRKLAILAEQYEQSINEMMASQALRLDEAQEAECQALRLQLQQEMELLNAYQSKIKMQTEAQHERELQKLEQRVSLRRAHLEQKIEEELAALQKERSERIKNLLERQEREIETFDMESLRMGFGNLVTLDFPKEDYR
The experiment in a line: Selectivity interaction (Kinase panel (Invitrogen)) EUB0000639a TAOK3. The note with it: at 200 nM.

The target in assay [3] is T2, Discoidin domain-containing receptor 2 (Homo sapiens) (UniProt Q16832).
T2 sequence (whole entry): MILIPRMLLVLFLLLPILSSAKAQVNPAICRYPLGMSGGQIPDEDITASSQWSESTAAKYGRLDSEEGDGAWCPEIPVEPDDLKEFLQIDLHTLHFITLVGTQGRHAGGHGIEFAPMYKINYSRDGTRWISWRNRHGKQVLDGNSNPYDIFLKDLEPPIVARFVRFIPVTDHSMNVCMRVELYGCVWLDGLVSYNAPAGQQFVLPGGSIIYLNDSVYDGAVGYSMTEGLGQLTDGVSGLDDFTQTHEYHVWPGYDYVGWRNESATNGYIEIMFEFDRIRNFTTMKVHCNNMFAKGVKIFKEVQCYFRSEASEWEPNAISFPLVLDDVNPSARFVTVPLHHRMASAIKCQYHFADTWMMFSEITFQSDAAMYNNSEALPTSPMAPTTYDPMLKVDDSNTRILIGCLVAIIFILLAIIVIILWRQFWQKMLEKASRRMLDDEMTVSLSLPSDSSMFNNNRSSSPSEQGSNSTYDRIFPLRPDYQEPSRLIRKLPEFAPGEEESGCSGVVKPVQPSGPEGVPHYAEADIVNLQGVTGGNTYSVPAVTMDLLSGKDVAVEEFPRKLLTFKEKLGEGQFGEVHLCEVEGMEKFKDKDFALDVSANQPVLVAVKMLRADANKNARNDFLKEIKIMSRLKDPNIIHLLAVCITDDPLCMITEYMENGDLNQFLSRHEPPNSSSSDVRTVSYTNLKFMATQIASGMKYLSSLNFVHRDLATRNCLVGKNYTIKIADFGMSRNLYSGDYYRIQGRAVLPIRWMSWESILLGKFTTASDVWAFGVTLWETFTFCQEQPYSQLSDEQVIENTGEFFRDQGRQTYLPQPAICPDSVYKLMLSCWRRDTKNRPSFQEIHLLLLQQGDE
Briefly: (§1) Selectivity interaction (ProQinase) EUB0000171b DDR2.

Assay [4] deals with T3, Discoidin domain-containing receptor 2 (Homo sapiens), Q16832 [N456S].
T3 sequence (whole entry): T2 sequence (whole entry) with N456S
The description is as §1.

Sequence of Dual specificity protein kinase CLK2 (P49760 whole entry, looked up): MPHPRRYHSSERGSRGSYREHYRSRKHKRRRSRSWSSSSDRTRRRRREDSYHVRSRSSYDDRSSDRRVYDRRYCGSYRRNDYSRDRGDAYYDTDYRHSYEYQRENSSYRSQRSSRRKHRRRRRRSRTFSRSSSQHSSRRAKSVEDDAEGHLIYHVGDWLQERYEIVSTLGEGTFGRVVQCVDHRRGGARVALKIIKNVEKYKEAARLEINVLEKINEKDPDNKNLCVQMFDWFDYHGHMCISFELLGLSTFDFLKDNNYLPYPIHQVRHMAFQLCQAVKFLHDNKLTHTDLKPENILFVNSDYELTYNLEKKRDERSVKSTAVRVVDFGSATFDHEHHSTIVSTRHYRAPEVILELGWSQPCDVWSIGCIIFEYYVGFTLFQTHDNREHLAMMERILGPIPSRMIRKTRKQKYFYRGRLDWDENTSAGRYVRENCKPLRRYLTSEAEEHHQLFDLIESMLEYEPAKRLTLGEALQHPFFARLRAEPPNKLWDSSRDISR

Take `N#Cc1cccc(-c2c[nH]c3ncnc(N4CCOCC4)c23)c1`: the % of control in assay [1] was determined as 64%.
Consider `CC[C@@H]1[C@H](F)C(=O)N[C@@H]1COc1nccc2cc(C(N)=O)c(OC)cc12` [ZIMLOVISERTIB], for which, in assay [2], the % of inhibition was -1.02%.
For `C=CC(=O)Nc1cccc(C(=O)Nc2ccc(Nc3cc(-c4[nH]c(SC)nc4C)ccn3)cc2)c1`, the % of control amounted to 90% in assay [3] (at 1 µM), 76% in assay [3] (at 5 µM), 88% in assay [4] (at 1 µM) and 67% in assay [4] (at 5 µM).
